The supplement of paper PMC5579334
± gives the standard deviation of the averaged measurements.

How the values were obtained:
STS26T [1] = experiment: drug sensitivity score (DSS, CellTox-Green cytotoxicity, 72 h) (DSS (dimensionless)); higher = more cytotoxic; extreme values may be limits of the assay
Method in brief: (§1)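 MPNST cell lines and primary human Schwann cells were incubated 72 h at 37 °C in 384-well plates holding five 10-fold compound dilutions. CellTox-Green was added before seeding at a final 1:1000 dilution and reported fluorescence from DNA released by disrupted cells. Signals were scaled to vehicle and positive-control wells, and cultures failing plate quality control were dropped. Drug sensitivity score and relative IC50 come from four-parameter logistic fits, with IC50 censored at the top concentration.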

S1507-2 [2] = experiment: as above
Method in brief: as §1

[3] = tested on: HSC2 (primary human Schwann cells); experiment: as above
Method in brief: as §1

[4] = tested on: HSC1 (primary human Schwann cells); experiment: as above
Method in brief: as §1

ST8814 [5] = experiment: as above
Method in brief: as §1

HS-PSS [6] = experiment: as above
Method in brief: as §1

STS26T [7] = experiment: drug sensitivity score (DSS, CellTiter-Glo viability, 72 h) (DSS (dimensionless)); higher = more sensitive; extreme values may be limits of the assay
Method in brief: (§2)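 Viability was scored by CellTiter-Glo ATP luminescence, scaled from vehicle to positive-control wells, with duplicates averaged where present. The cells, MPNST lines and primary human Schwann cells at 750–1000 per well, sat 72 h at 37 °C, 5% CO2, in 384-well plates preprinted with each compound at five concentrations in 10-fold steps. Four-parameter logistic fits were run on the data. These fits give drug sensitivity score and relative IC50 censored at the top concentration, and percent inhibition is reported at the top concentration.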

S1507-2 [8] = experiment: as above
Method in brief: as §2

[9] = tested on: HSC2 (primary human Schwann cells); experiment: as above
Method in brief: as §2

[10] = tested on: HSC1 (primary human Schwann cells); experiment: as above
Method in brief: as §2

HS-Sch-2 [11] = experiment: as above
Method in brief: as §2

S462 [12] = experiment: as above
Method in brief: as §2

ST8814 [13] = experiment: as above
Method in brief: as §2

HS-PSS [14] = experiment: as above
Method in brief: as §2

YST-1 [15] = experiment: as above
Method in brief: as §2

STS26T [16] = experiment: % inhibition of CellTiter-Glo viability at highest tested concentration (72 h), relative to DMSO and benzethonium chloride controls; higher = more inhibition
Method in brief: as §2

S1507-2 [17] = experiment: as above
Method in brief: as §2

[18] = tested on: HSC2 (primary human Schwann cells); experiment: as above
Method in brief: as §2

[19] = tested on: HSC1 (primary human Schwann cells); experiment: as above
Method in brief: as §2

HS-Sch-2 [20] = experiment: as above
Method in brief: as §2

S462 [21] = experiment: as above
Method in brief: as §2

ST8814 [22] = experiment: as above
Method in brief: as §2

HS-PSS [23] = experiment: as above
Method in brief: as §2

YST-1 [24] = experiment: as above
Method in brief: as §2

Compound | drug sensitivity score (STS26T [1]) | drug sensitivity score (S1507-2 [2]) | drug sensitivity score [3] | drug sensitivity score [4] | drug sensitivity score (ST8814 [5]) | drug sensitivity score (HS-PSS [6]) | drug sensitivity score (STS26T [7]) | drug sensitivity score (S1507-2 [8]) | drug sensitivity score [9] | drug sensitivity score [10] | drug sensitivity score (HS-Sch-2 [11]) | drug sensitivity score (S462 [12]) | drug sensitivity score (ST8814 [13]) | drug sensitivity score (HS-PSS [14]) | drug sensitivity score (YST-1 [15]) | % inhibition (STS26T [16]) [%] | % inhibition (S1507-2 [17]) [%] | % inhibition [18] [%] | % inhibition [19] [%] | % inhibition (HS-Sch-2 [20]) [%] | % inhibition (S462 [21]) [%] | % inhibition (ST8814 [22]) [%] | % inhibition (HS-PSS [23]) [%] | % inhibition (YST-1 [24]) [%]
CCCc1cc(C)[nH]c(=O)c1CNC(=O)c1cc(-c2ccnc(N3CCN(C)CC3)c2)cc2c1cnn2C(C)C [GSK343] (max concentration tested 10000 nM) | 6.48 | 6.1 ± 1.5 | 0 | 0 | 5.69 | 5.71 | 3.88 | 5.498 ± 0.026 | 2.64 | 4.34 | 4.46 | 2.58 ± 1.2 | 5.22 | 5.59 | 1.05 | 84.1 | 86 ± 10 | 34.4 | 47 | 95.9 | 49.6 ± 14 | 94.4 | 94.3 | 33.9
CCOC(=O)CCNc1cc(N2CCc3ccccc3CC2)nc(-c2ccccn2)n1 [GSK-J4] (max concentration tested 100000 nM) | 8.17 | 3.11 ± 4.4 | 7.09 | 7.1 | 6.13 | 4.79 | 14.6 | 13.4 ± 0.92 | 15.2 | 14.8 | 15.9 | 16.3 ± 0.36 | 14.1 | 14.4 | 16.3 | 96.1 | 97.2 ± 1.9 | 96.5 | 95.8 | 99 | 95.2 ± 0.48 | 97.1 | 99.4 | 100
Cc1cccc(-c2nn3c(c2-c2ccnc4ccc(C(N)=O)cc24)CCC3)n1 [Galunisertib] (max concentration tested 1000 nM) | 0 | 0.0896 ± 0.13 | 0 | 0 | 0 | 0 | 0.276 | 0 | 0 | 0 | 0 | 0.00835 ± 0.012 | 0 | 0 | 0 | 12.7 | 9.64 ± 5.1 | 10.8 | 6.58 | -22 | 5.62 ± 8.5 | -1.47 | 3.21 | -12.1
Cc1cc(Nc2cc(CN3CCOCC3)c3nc(C)c(Cc4ccc(Cl)cc4F)n3n2)n[nH]1 [Gandotinib] (max concentration tested 10000 nM) | 3.96 | 7.03 ± 1.3 | 7.38 | 8.02 | 5.3 | 0.55 | 8.72 | 10.4 ± 1.9 | 10.9 | 10.2 | 9.06 | 11.7 ± 2.7 | 8.52 | 7.29 | 7.71 | 68.9 | 101.6 ± 0.37 | 103 | 103 | 96.6 | 96.5 ± 2.7 | 97.2 | 68 | 70.5
CC(C)c1cc(-c2n[nH]c(=O)n2-c2ccc3c(ccn3C)c2)c(O)cc1O [Ganetespib] (max concentration tested 1000 nM) | 10.9 | 12.7 | 20.9 | 21.1 | 17.2 | 4.34 | 17.6 | 15.5 | 20.6 | 21.5 | 19.6 | 19.2 | 20.7 | 13.9 | 13.7 | 94.1 | 94.5 | 98.5 | 99.1 | 101 | 99.6 | 101 | 84.2 | 79.1
COc1cc2ncnc(Nc3ccc(F)c(Cl)c3)c2cc1OCCCN1CCOCC1 [Gefitinib] (max concentration tested 10000 nM) | 0.896 | 2.49 ± 3.5 | 0 | 0 | 5.95 | 0 | 2.37 | 2.3 ± 1.1 | 3.41 | 2.58 | 4.94 | 1.43 ± 0.69 | 3.34 | 5.27 | 5.06 | 53.6 | 49.1 ± 12 | 54.7 | 46.2 | 60.2 | 39.9 ± 12 | 68.4 | 61.4 | 46.2
Nc1ccn([C@@H]2O[C@H](CO)[C@@H](O)C2(F)F)c(=O)n1 [Gemcitabine] (max concentration tested 1000 nM) | 19.3 | 14.3 ± 2 | 18.5 | 23.3 | 21 | 7.61 | 28.3 | 31.7 ± 4.1 | 27.7 | 26.5 | 25.2 | 40.2 ± 1 | 27.7 | 14.7 | 19.7 | 83.8 | 86.1 ± 3.8 | 84.5 | 85 | 75 | 99.9 ± 2.2 | 96.5 | 70.2 | 76.7
